According to patent US6723710B2, “Compositions for inhibiting arginase activity” (The Trustees of the University of Pennsylvania, priority 1997, dated 2004):
Entries after “also recorded” stand apart in the source; their conditions may differ.

Experiments:
arginase [1] = target: T1, arginase (Rattus norvegicus, UniProt P07824); assay: biochemical; conditions: Kd from competition binding experiments using N-hydroxyarginine, pH 7.5 and pH 9.0
T1 sequence (P07824 1-323): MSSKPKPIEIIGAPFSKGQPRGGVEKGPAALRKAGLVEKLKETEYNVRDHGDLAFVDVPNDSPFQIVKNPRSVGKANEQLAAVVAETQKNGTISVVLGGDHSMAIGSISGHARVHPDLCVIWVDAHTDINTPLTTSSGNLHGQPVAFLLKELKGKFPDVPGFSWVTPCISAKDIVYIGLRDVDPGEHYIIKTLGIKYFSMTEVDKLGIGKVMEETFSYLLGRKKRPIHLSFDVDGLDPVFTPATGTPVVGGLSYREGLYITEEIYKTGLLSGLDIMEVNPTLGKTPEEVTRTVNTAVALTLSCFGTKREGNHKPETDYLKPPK
Description: Additional evidence for high affinity binding of arginase and ABHA was derived from competition binding experiments using ABHA and N-hydroxyarginine, as monitored by fluorescence spectroscopy. Addition of N-hydroxyarginine to a solution of arginase results in a significant decrease in intrinsic protein fluorescence at 327 nanometers.

rectum arginase activity = assay: arginase activity in rectum homogenate; format: biochemical, opossum
Excerpt: (§1) Tissue samples of the opossum internal anal sphincter muscle (IAS), adjoining rectal tissue, liver, and brain were homogenized using an ULTRATURRAX™ tissue homogenizer (Tekamr, Cincinnati, Ohio) in a solution comprising 10 millimolar Tris-HCl, 150 millimolar KCl, and 25 millimolar MnCl2, at pH 7.4. The homogenates were dialyzed overnight against the same solution. Dialyzed homogenates were centrifuged to remove insoluble material and concentrated with Amicon CENTRICON™ 30 microconcentrators to yield stock protein preparations having protein concentrations of 2.4 milligrams per milliliter for IAS smooth muscle, 3.6 milligrams per milliliter for rectal smooth muscle, 3 milligrams per milliliter for brain, and 17.5 milligrams per milliliter for liver. Protein concentrations were estimated with the Pierce Coomassie Protein Reagent kit using bovine serum albumin as a standard.
(§2) Arginase activity in tissue homogenates was evaluated using the radioactive L-[guanidino^14C]arginine assay of Rüegg and Russell (1980, Anal. Biochem. 102:206-212). Assays were performed using a solution comprising 100 millimolar CHES-NaOH and 0.1 millimolar MnCl2 at pH 9.0. The reactions were initiated by addition of 5 microliters of tissue homogenate to 45 microliters of reaction mixture that contained the CHES buffer, the appropriate concentration of arginine (0.5 to 5 millimolar) and about 5.0×10^4 counts per minute of L-[guanidino-^14C]arginine. IAS, rectal muscle, and brain homogenates were incubated with the assay mixture at room temperature for one hour, and the liver sample was incubated for 5 minutes. The reactions were stopped by addition of 200 microliters of a stop solution containing 0.25 molar acetic acid, 7 molar urea, and 10 millimolar arginase at pH 4.5. Arginase has essentially no activity at the low pH of the stop solution. [^14C] Urea was separated from non-reacted L-[guanidino-^14C]arginine by treatment with 200 μl of 1:1 v/v slurry of DOWEX™ 50W-X8 in water, and quantitated by adding 200 microliters of the supernatant from the DOWEX™ treatment to 3 milliliters of LIQUISCENT™ (National Diagnostics) for liquid scintillation counting in a Beckman LS 5000CE counter. The data were analyzed using double-reciprocal plots of the initial velocity measurements; standard errors were determined by regression analysis.
Assays in the presence of the inhibitors N^ω-hydroxy-L-arginine (1 to 100 micromolar) and ABHA (0.05 to 100 micromolar) were performed as described above. The amino acid D-ornithine served as a control in these experiments, since this amino acid, unlike L-omithine, is not an inhibitor of arginase.

NO synthase = target: T2, NO synthase (Homo sapiens, UniProt P29475); assay: Nitric Oxide Synthase-ABHA assay (NO2-/NO3- production); format: biochemical; conditions: 0.1 millimolar or 1.0 millimolar ABHA
T2 construct: purchased Biomol
Excerpt: NADPH, FAD, FMN, L-arginine, N-(2-hydroxyethyl)piperazine-N-2-ethanesulfonic acid (HEPES) (6R)-5,6,7,8-tetrahydro-L-biopterin (BH4), aminoguanidine, CaCl2, and phosphodiesterase cyclic nucleotide activator (calmodulin) were purchased from Sigma Chemical Company (St. Louis, Mo.). Neuronal NO synthase was purchased from Biomol, dialyzed to remove beta-mercaptoethanol, and concentrated to 0.1 milligram per milliliter. The nitric oxide synthase colorimetric assay kit was purchased from Calbiochem. Materials were used without further purification. The effect of ABHA on NO synthesis was assayed by monitoring the sum of NO2^− and NO3^− production, as described (Verdon et al., 1995, Anal. Biochem. 224:502-508). The enzyme solution was shaken at 37° C. for 15 minutes with 50 millimolar HEPES (pH 7.5), 100 micromolar NADPH, 4 micromolar FAD, 4 micromolar FMN, 6 micromolar BH4, 100 micromolar L-arginine, 0.0-1.0 millimolar ABHA, and 0.02 milligram per milliliter NO synthase in a final volume of 100 microliters. For experiments in which neuronal NO synthase was used, 1 millimolar CaCl2 and 100 micrograms per milliliter calmodulin were also added. Reactions were stopped by incubating the reaction mixture at 100° C. for 3 minutes. […] Absorbance at 540 nanometers was used to quantify the extent of NOx production.

brain arginase activity = assay: arginase activity in brain homogenate; format: biochemical, opossum
Excerpt: as §1
as §2, with “The reactions were stopped by addition of 200 microliters of a stop solution containing 0.25 molar acetic acid, 7 molar urea, and 10 millimolar arginase at pH 4.5. Arginase has essentially no activity at the low pH of the stop solution. [^14C]” left out, “analysis. […]” for “analysis.”

arginase [2] = target: T1, arginase; assay: isothermal titration calorimetry; format: binding; set-up: made in house
Description: All calorimetry experiments were conducted on a MCS isothermal calorimeter from MicroCal, Inc. (Northampton, Mass.). Arginase was exhaustively dialyzed against a solution comprising 100 micromolar MnCl2 and 50 millimolar bicine-NaOH (pH 8.5). […] Prior to the titration experiment, samples were de-gassed under vacuum for 5 minutes. […] The contents of the sample cell were titrated with 30-40 aliquots (2.5 microliters each) of inhibitor (an initial 1 microliters injection was made, but not used in data analysis). After each injection, the heat change was measured and converted to the corresponding enthalpy value. The reaction mixture was continuously stirred at 400 rotations per minute during titration. Control experiments were carried out by titrating the inhibitor into the buffer solution under identical experimental conditions. Data analysis was performed using ORIGIN™ software provided with the instrument. The calorimetric data are presented with the background titrations subtracted from the experimental data. The amount of heat produced per injection was calculated by integration of the area under each peak. The data were fit to the following equation, […]

T2 sequence (P29475 whole entry): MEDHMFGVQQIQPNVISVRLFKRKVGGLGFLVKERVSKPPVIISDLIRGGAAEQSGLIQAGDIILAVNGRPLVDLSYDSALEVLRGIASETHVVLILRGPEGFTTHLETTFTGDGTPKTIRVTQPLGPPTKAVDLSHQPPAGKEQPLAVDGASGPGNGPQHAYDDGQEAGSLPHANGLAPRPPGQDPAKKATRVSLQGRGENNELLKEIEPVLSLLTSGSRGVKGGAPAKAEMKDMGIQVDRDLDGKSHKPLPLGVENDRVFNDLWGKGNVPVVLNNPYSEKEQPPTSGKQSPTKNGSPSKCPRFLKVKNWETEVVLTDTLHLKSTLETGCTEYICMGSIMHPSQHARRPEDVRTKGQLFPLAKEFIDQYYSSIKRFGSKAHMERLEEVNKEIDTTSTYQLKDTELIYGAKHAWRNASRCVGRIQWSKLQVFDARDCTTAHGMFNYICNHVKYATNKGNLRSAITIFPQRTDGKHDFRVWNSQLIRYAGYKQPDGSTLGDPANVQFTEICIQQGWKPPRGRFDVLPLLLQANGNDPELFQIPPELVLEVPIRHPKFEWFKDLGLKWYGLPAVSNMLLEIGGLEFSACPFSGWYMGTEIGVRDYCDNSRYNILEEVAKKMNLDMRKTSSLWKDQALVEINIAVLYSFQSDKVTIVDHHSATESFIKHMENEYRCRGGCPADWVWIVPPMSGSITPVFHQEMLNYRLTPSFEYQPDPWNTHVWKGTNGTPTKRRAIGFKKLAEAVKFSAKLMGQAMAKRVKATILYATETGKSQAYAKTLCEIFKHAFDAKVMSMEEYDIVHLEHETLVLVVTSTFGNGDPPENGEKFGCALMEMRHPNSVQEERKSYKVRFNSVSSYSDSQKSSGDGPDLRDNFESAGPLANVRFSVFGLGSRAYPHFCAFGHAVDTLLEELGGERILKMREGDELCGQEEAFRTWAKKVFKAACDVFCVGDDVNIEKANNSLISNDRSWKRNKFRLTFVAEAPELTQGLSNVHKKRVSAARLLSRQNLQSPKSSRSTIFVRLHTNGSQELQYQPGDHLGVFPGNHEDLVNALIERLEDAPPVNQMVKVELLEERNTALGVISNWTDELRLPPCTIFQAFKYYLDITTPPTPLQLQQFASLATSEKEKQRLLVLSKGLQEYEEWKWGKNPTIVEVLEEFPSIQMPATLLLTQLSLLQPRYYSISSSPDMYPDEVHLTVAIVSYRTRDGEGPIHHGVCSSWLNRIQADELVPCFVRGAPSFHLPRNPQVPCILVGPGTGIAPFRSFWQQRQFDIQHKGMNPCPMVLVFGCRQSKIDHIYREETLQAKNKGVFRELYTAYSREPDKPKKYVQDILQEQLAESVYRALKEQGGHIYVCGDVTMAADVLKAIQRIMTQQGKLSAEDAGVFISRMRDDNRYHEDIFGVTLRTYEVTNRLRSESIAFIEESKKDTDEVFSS

With `N[C@@H](CCCCB(O)O)C(=O)O` [compound 7, 2(S)-amino-6-boronohexanoic acid] the Kd (arginase [1]) was at most 100 nM, the Ki (rectum arginase activity; arginine fixed at Km, assuming competitive inhibition, read-out: estimated Ki, rectum arginase activity) was 26 nM and the “times more potent than L-HO-Arg, rectum” value (rectum arginase activity; rectum homogenate) was 840 times. For the same compound, the IC50 (rectum arginase activity; rectum, read-out: IC50 for inhibition of arginase activity, rectum homogenate) was 50 nM, the “inhibition of NO synthase” value (NO synthase) was “does not inhibit NO synthase; also recorded: no inhibition” and the Ki (brain arginase activity; arginine fixed at Km, assuming competitive inhibition, read-out: estimated Ki, brain arginase activity) was 18 nM. The “times more potent than L-HO-Arg, brain” value (brain arginase activity; brain homogenate) was 800 times, the Kd (arginase [2]; 100 micromolar MnCl2, 50 millimolar bicine pH 8.5, 25° C., read-out: Kd determined by titration calorimetry) was 110 nM and the “association constant (Ka)” value (arginase [2]; pH 8.5, 25° C.) was 8.89×10^6 inverse molar. For the same compound, the “enthalpy change (ΔH) of binding” value (arginase [2]; pH 8.5, 25° C.) was −12.97 kilocalories per mole and the “stoichiometry (n), moles bound per mole of arginase monomer” value (arginase [2]; pH 8.5, 25° C.) was 1.07.
